According to patent publication US20240116910A1, “Heterocycles as WIP1 Inhibitors” (PMV Pharmaceuticals, Inc., priority 2022, published 2024):

Key:
[1] = molecular target: recombinant His-tag Wip1 full length protein (amino acids #1-605) (Homo sapiens (Human), UniProt O15297); test: Wip1 full length phosphatase enzyme FDP assay; type: biochemical; details: fluorescein diphosphate (FDP) substrate, RT 2 hours, fluorescence Ex485/Em535
[2] = molecular target: recombinant His-tag Wip1(2-420) protein (amino acids #2-420) (Homo sapiens (Human), UniProt O15297); test: Wip1(2-420) phosphatase enzyme FDP assay; type: biochemical; details: fluorescein diphosphate (FDP) substrate, RT 2 hours, fluorescence Ex485/Em535; read-out: WIP1 (Truncated 2-420) FDP Assay: IC50
recombinant His-tag Wip1(2-420) protein (amino acids #2-420), sequence (O15297 2-420): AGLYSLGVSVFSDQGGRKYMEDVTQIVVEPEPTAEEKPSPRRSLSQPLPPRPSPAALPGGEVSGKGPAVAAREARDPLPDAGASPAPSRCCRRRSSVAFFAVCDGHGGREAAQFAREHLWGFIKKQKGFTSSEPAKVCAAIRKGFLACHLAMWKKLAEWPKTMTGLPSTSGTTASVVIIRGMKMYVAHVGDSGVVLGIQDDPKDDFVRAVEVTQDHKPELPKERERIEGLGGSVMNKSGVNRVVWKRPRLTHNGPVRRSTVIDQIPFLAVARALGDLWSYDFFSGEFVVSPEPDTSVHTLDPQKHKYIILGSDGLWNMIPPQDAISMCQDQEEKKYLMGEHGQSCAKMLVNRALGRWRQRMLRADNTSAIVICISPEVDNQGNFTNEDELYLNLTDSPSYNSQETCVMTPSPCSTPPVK

recombinant His-tag Wip1 full length protein (amino acids #1-605), sequence (O15297 whole entry, the tested form may be a part): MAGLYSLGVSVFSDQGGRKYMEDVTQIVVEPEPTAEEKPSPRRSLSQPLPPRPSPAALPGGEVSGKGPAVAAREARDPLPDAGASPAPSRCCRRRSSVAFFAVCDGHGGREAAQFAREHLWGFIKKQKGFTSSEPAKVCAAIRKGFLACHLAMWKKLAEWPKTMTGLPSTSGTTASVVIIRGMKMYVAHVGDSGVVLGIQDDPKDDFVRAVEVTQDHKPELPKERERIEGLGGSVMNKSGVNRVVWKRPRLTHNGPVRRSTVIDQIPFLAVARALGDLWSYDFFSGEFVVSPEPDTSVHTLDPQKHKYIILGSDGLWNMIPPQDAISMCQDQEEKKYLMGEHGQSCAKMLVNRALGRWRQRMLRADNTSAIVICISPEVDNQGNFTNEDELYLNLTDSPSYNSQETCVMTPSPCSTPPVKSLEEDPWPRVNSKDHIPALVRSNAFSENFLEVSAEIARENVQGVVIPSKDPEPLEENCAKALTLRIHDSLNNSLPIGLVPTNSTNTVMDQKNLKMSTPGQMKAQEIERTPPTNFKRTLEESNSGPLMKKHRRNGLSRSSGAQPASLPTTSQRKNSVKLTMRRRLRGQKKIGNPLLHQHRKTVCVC

| SMILES | IC50 [1] [µM] | IC50 [2] [µM] |
| --- | --- | --- |
| COCCOc1ccc(NC(=O)[C@H](CC2CCCC2)NC(=O)c2ccc([C@H](C)Nc3cc(Cl)cnc3C)s2)cc1 [Compound 59, (2S)-2-({5-[(1S)-1-[(5-chloro-2-methylpyridin-3-yl)amino]ethyl]thiophen-2-yl}formamido)-3-cyclopentyl-N-[4-(2-methoxyethoxy)phenyl]propanamide] | 0.007 | 0.005 |
| CCNC(=O)[C@H](CC1CCCC1)NC(=O)c1ccc([C@H](C)Nc2cc(Cl)cnc2C)s1 [Compound 77, (2S)-2-({5-[(1S)-1-[(5-chloro-2-methylpyridin-3-yl)amino]ethyl]thiophen-2-yl}formamido)-3-cyclopentyl-N-ethylpropanamide] | 0.01 | 0.006 |
| Cc1ncc(Cl)cc1NC(C)c1ccc(C(=O)N[C@@H](CC2CCCC2)C(=O)NC23CC(C2)C3)s1 (stereo partly drawn) [Compound 10, N-[(1S)-2-(1-bicyclo [1.1.1]pentanylamino)-1-(cyclopentylmethyl)-2-oxo-ethyl]-5-[1-[(5-chloro-2-methyl-3-pyridyl)amino]ethyl]thiophene-2-carboxamide] | 0.018 | 0.01 |
| Cc1ncc(Cl)cc1N[C@@H](C)c1ccc(C(=O)N[C@@H](CCC(C)(C)C)C(=O)Nc2cnn(C)c2)s1 [Compound 160, (2S)-2-({5-[(1S)-1-[(5-chloro-2-methylpyridin-3-yl)amino]ethyl]thiophen-2-yl}formamido)-5,5-dimethyl-N-(1-methyl-1H-pyrazol-4-yl)hexanamide] | 0.013 | 0.009 |
| Cc1ncc(Cl)cc1NC(C)c1ncc(C(=O)N[C@@H](CC2CCCC2)C(=O)NC2CC2)s1 (stereo partly drawn) [Compound 280, (2S)-2-[(2-{1-[(5-chloro-2-methylpyridin-3-yl)amino]ethyl}-1,3-thiazol-5-yl)formamido]-3-cyclopentyl-N-cyclopropylpropanamide] | 0.07 | 0.041 |
| Cc1ncc(Cl)cc1N[C@H](C)c1ccc(C(=O)N[C@@H](CC2CCCC2)C(=O)N[C@H]2CC2(F)F)s1 [Compound 21, (2S)-2-({5-[(1R)-1-[(5-chloro-2-methylpyridin-3-yl)amino]ethyl]thiophen-2-yl}formamido)-3-cyclopentyl-N-[(1S)-2,2-difluorocyclopropyl]propanamide] | 0.139 | 0.109 |
| Cc1ncc(Cl)cc1NC(C)c1ccc(C(=O)N[C@@H](CC2CCCC2)C(=O)NC2CC2(F)F)s1 (stereo partly drawn) [Compound 13, (2S)-2-[(5-{1-[(5-chloro-2-methylpyridin-3-yl)amino]ethyl}thiophen-2-yl)formamido]-3-cyclopentyl-N-(2,2-difluorocyclopropyl)propanamide] | 0.011 | 0.01 |
| CC[C@@H](Nc1cc(Cl)cnc1C)c1ccc(C(=O)N[C@@H](CC2CCCC2)C(=O)N[C@@H]2CC2(F)F)s1 [Compound 50, (2S)-2-({5-[(1R)-1-[(5-chloro-2-methylpyridin-3-yl)amino]propyl]thiophen-2-yl}formamido)-3-cyclopentyl-N-[(1R)-2,2-difluorocyclopropyl]propanamide] | 0.17 | 0.122 |
| Cc1ncc(Cl)cc1N[C@@H](C)c1ccc(C(=O)N[C@@H](CC2CCCC2)C(=O)NC2CCN(C)CC2)s1 [Compound 32, (2S)-2-({5-[(1S)-1-[(5-chloro-2-methylpyridin-3-yl)amino]ethyl]thiophen-2-yl}formamido)-3-cyclopentyl-N-(1-methylpiperidin-4-yl)propanamide] | 0.073 | 0.048 |
| C[C@H](c1ccc(C(=O)N[C@@H](CC2CCCC2)C(=O)NC2CC2)s1)N1CCc2cc(F)c(Cl)cc21 [Compound 57, (2S)-2-({5-[(1R)-1-(6-chloro-5-fluoro-2,3-dihydro-1H-indol-1-yl)ethyl]thiophen-2-yl}formamido)-3-cyclopentyl-N-cyclopropylpropanamide] | 0.016 | 0.012 |
| Cc1ncc(Cl)cc1N[C@@H](C)c1ccc(C(=O)N[C@@H](CC2CCCC2)C(=O)NC23CC(C2)C3)s1 [Compound 11, (2S)-N-{bicyclo[1.1.1]pentan-1-yl}-2-({5-[(1S)-1-[(5-chloro-2-methylpyridin-3-yl)amino]ethyl]thiophen-2-yl}formamido)-3-cyclopentylpropanamide] | 0.009 | 0.006 |
| Cc1ncc(Cl)cc1N[C@@H](C)c1ccc(C(=O)N[C@@H](CC2CCCC2)C(=O)N[C@@H]2C[C@@H]2F)s1 [Compound 30, (2S)-2-({5-[(1S)-1-[(5-chloro-2-methylpyridin-3-yl)amino]ethyl]thiophen-2-yl}formamido)-3-cyclopentyl-N-[(1R,2S)-2-fluorocyclopropyl]propanamide] | 0.01 | 0.006 |
| CN(Cc1ccc(C(=O)N[C@@H](CC2CCCCC2)C(=O)NC2CCC(N(C)C)CC2)s1)c1cncc(Cl)c1 (stereo partly drawn) [Compound 298, 5-[[(5-chloro-3-pyridyl)-methyl-amino]methyl]-N-[(1S)-1-(cyclohexylmethyl)-2-[[4-(dimethylamino)cyclohexyl]amino]-2-oxo-ethyl]thiophene-2-carboxamide] | 0.011 | 0.031 |
| C[C@H](Nc1ccc(F)c(Cl)c1)c1ccc(C(=O)N[C@@H](CC2CCCC2)C(=O)NC2CC2)s1 [Compound 6, 5-[(1S)-1-(3-chloro-4-fluoro-anilino)ethyl]-N-[(1S)-1-(cyclopentylmethyl)-2-(cyclopropylamino)-2-oxo-ethyl]thiophene-2-carboxamide] | 0.009 | 0.006 |
| Cc1cc(NC(=O)[C@H](CC2CCCC2)NC(=O)c2cnc([C@@H](C)Nc3cccc(Cl)c3)s2)ccn1 [Compound 120, (2S)-2-({2-[(1R)-1-[(3-chlorophenyl)amino]ethyl]-1,3-thiazol-5-yl}formamido)-3-cyclopentyl-N-(2-methylpyridin-4-yl)propanamide] | 0.011 | 0.007 |
| CC[C@@H](Nc1cc(Cl)cnc1C)c1ccc(C(=O)N[C@@H](CC2CCCC2)C(=O)NC2CC2)s1 [Compound 39, (2S)-2-({5-[(1R)-1-[(5-chloro-2-methylpyridin-3-yl)amino]propyl]thiophen-2-yl}formamido)-3-cyclopentyl-N-cyclopropylpropanamide] | 0.332 | 0.122 |
| Cc1ncc(Cl)cc1N[C@@H](Cc1cnn(C)c1)c1ccc(C(=O)N[C@@H](CC2CCCC2)C(=O)NC2CC2)s1 [Compound 171, (2S)-2-({5-[(1S)-1-[(5-chloro-2-methylpyridin-3-yl)amino]-2-(1-methyl-1H-pyrazol-4-yl)ethyl]thiophen-2-yl}formamido)-3-cyclopentyl-N-cyclopropylpropanamide] | 0.01 | 0.007 |
| CC[C@H](Nc1cc(Cl)cnc1C)c1ccc(C(=O)N[C@@H](CC2CCCC2)C(=O)NC23CC(C2)C3)s1 [Compound 68, (2S)-N-{bicyclo[1.1.1]pentan-1-yl}-2-({5-[(1S)-1-[(5-chloro-2-methylpyridin-3-yl)amino]propyl]thiophen-2-yl}formamido)-3-cyclopentylpropanamide] | 0.008 | 0.006 |
| O=C(N[C@@H](CC1CCCCC1)C(=O)NC1CCOCC1)c1cnc(CNc2ccnc(C(F)(F)F)c2)s1 [Compound 305, N-[(1S)-1-(cyclohexylmethyl)-2-oxo-2-(tetrahydropyran-4-ylamino)ethyl]-2-[[[2-(trifluoromethyl)-4-pyridyl]amino]methyl]thiazole-5-carboxamide] | 0.031 | 0.09 |
